Measurements from patent EP4342890A1, “PLATFORM AND SCAFFOLD FOR FAP TARGETING AGENTS” (Erasmus University Rotterdam Medical Center, priority 2022, dated 2024).

How the values were obtained:
FAP [1] = target: T1, FAP (Homo sapiens, UniProt Q12884); assay: Competitive binding assay against [111In]In-FAPI-46 in HT-1080.hFAP cells; parameters: expressed in transfected cells; host or cells: HT-1080.hFAP cells; details: competition with [111In]In-FAPI-46 in HT-1080.hFAP cells, 37 °C, 1 h; unit inferred
T1 sequence (Q12884 1-760): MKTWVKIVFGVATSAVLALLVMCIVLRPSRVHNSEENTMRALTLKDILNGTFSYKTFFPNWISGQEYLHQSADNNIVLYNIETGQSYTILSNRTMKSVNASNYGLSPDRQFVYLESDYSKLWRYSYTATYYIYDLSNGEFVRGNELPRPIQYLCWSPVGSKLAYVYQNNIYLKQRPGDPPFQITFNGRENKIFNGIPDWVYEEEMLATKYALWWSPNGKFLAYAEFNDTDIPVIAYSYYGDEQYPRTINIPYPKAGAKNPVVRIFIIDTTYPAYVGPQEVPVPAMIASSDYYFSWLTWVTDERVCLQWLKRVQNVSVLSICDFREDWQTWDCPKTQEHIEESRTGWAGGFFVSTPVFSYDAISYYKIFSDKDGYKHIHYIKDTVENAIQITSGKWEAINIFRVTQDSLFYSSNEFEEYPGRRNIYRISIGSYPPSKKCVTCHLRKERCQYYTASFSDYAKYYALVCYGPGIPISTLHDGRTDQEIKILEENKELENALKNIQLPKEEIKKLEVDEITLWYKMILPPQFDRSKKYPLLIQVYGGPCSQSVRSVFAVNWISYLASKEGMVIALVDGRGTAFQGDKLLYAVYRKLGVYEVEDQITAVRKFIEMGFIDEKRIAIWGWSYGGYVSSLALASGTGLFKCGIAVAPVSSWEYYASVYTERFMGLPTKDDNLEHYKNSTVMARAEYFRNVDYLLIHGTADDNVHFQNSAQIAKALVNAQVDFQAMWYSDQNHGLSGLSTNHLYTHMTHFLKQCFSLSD
Protocol: The U-87 MG glioblastoma was cultured at 37 °C and 5% CO2 in Dulbecco's Modified Eagle Medium (DMEM) supplemented with 10 % (v/v) fetal calf serum. HT-1080.hFAP cells were kept in culture in DMEM medium supplemented with fetal bovine serum (10%, FBS) and antibiotic antimycotic (1%, AA) at 37 °C and 5% CO2. For passaging, cells were detached using Trypsin-EDTA 0.05% when reaching 90% confluence and re-seeded at a dilution of 1:4.
Competition binding experiments were conducted by incubation of the [^111In]In-FAPI-46 radioligand with increasing concentrations of eFAP compound in HT-1080.hFAP cells at 37 °C for 1 h. Cells were then washed three times with binding buffer and lysed. The cell-associated radioactivity was measured in a γ-counter. The IC50 values were calculated by fitting the data by non-linear regression using GraphPad Prism.

murine FAP = target: T2, murine FAP (Mus musculus, UniProt P97321); assay: In vitro inhibition assay on mouse FAP (Z-GP-AMC substrate); format: biochemical; details: enzymatic assay; 20 µM Z-GP-AMC, 20 nM FAP; unit inferred
T2 sequence (P97321 1-761): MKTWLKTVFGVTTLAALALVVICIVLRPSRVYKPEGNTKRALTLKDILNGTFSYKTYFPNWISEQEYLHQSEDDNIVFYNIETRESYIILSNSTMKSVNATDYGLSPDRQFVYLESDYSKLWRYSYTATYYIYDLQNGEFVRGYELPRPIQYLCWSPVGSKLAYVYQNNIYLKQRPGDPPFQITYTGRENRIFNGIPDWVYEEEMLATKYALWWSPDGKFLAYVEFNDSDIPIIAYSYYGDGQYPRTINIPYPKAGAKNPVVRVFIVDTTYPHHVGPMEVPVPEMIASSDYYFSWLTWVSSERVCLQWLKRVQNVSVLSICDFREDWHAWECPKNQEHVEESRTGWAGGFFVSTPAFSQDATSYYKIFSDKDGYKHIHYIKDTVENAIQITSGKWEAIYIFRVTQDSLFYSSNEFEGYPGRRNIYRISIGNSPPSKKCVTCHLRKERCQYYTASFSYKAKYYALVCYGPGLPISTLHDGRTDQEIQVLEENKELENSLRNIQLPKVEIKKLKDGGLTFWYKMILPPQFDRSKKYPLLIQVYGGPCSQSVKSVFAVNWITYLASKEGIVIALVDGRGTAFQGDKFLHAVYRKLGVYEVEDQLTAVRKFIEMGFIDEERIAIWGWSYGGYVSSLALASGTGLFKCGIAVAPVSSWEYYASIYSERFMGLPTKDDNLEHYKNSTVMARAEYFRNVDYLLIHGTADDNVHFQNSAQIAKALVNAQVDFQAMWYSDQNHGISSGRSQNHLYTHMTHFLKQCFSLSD
Protocol: (§1) Enzymatic activity of human FAP (hFAP) and mouse FAP (mFAP) on the Z-GP-AMC substrate was measured at room temperature on a Hidex microplate reader by monitoring the fluorescence at an excitation wavelength of 360 nm and an emission wavelength of 465 nm. The reaction mixture contained 20 µM substrate, 20 nM FAP, assay buffer (50 mM Tris, 100 mM NaCl, 1 mM EDTA, pH 7.4) and tested compound (serial dilution from 10^-6 to 10^-12) in a total volume of 50 µL.

FAP [2] = target: T1, FAP; assay: In vitro inhibition assay on human FAP (Z-GP-AMC substrate); format: biochemical; details: enzymatic assay; 20 µM Z-GP-AMC, 20 nM FAP; unit inferred
Protocol: as §1

CN(CCCN1CCN(C(=O)CN2CCN(CC(=O)O)CCN(CC(=O)O)CCN(CC(=O)O)CC2)CC1)c1ccc2nccc(C(=O)NCC(=O)N3CC(F)(F)C[C@H]3C#N)c2c1 [FAPI-46, reference compound] gave an IC50 (FAP [1]) of 1.6 ± 0.3 nM, an IC50 (murine FAP) of 15 ± 2 nM and an IC50 (FAP [2]) of 2.7 ± 1.7 nM.
